Experimental data: ChEMBL document CHEMBL1141515, “2-(1H-Imidazol-4-yl)ethanamine and 2-(1H-pyrazol-1-yl)ethanamine side chain variants of the IGF-1R inhibitor BMS-536924” (Bioorg Med Chem Lett, 2008)

Key:
Mus musculus = experiment: AUC (0 to 4h) in mouse at 20 mg/kg, po; assay type: ADME, organism-based, Plasma; design: time < 4 hr, dose 20 mg/kg, route oral; details: in vivo
[1] = molecular target: T1, Insulin-like growth factor 1 receptor (Homo sapiens, UniProt P08069); experiment: Inhibition of IGF1R expressed in SAL cells; assay type: cell-based
[2] = molecular target: T1, Insulin-like growth factor 1 receptor; experiment: Inhibition of IGF1R
[3] = Protein binding in mouse serum; assay type: ADME, cell-free; details: read-out: PB
Serum = experiment: Protein binding in human serum; assay type: ADME, cell-free

T1 sequence (P08069 31-736 limits assumed): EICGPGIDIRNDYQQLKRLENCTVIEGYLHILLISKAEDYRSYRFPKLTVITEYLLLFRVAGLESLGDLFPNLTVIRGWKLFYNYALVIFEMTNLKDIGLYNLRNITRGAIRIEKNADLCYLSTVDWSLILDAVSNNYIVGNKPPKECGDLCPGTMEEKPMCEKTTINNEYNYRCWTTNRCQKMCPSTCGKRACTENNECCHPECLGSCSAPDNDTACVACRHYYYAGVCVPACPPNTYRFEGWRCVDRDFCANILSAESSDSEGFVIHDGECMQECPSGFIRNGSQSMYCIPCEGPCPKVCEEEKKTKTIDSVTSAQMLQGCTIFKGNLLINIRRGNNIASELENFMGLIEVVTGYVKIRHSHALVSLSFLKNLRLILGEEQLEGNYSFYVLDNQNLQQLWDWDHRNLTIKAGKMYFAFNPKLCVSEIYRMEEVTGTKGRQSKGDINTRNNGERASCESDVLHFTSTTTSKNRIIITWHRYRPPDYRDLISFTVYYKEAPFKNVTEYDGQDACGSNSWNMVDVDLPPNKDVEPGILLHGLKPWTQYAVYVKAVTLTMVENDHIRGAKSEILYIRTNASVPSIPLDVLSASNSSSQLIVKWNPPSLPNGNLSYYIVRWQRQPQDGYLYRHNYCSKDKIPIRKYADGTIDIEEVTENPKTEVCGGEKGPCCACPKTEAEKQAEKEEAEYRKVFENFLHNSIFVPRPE
T1 sequence (P08069 741-1367 limits assumed): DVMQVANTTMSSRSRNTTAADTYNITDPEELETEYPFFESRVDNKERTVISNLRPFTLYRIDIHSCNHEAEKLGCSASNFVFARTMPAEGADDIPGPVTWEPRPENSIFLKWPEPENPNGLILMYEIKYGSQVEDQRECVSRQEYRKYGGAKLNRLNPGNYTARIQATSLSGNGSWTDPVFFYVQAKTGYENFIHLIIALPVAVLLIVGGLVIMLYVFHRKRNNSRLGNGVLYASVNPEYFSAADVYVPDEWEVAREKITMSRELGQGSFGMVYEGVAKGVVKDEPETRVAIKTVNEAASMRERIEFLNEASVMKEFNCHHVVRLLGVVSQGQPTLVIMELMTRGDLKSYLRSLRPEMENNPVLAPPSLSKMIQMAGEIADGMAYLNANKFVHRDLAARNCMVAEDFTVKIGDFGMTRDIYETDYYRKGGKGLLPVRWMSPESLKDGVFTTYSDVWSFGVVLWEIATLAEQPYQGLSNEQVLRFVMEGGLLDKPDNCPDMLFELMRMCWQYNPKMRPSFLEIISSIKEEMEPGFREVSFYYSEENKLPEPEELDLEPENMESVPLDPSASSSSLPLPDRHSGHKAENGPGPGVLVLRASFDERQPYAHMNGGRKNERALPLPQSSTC

Compound | AUC (Mus musculus) | also measured
Cc1cc(N2CCOCC2)cc2[nH]c(-c3c(NCCc4ncn(C)c4Cl)cc[nH]c3=O)nc12 | 8.2 µM·h | –
CCn1cnc(CCNc2cc[nH]c(=O)c2-c2nc3c(C)cc(N4CCOCC4)cc3[nH]2)c1Cl | 50.9 µM·h | –
Cc1cc(N2CCOCC2)cc2[nH]c(-c3c(NCCc4cn(C)cn4)cc[nH]c3=O)nc12 | 3.8 µM·h | –
Cc1cc(N2CCOCC2)cc2[nH]c(-c3c(NCCc4nc(C)n(C)c4Cl)cc[nH]c3=O)nc12 | 36 µM·h | –
Cc1cc(N2CCOCC2)cc2[nH]c(-c3c(NCCc4nc(Cl)n(C)c4Cl)cc[nH]c3=O)nc12 | 32.2 µM·h | –
Cc1cnn(CCNc2cc[nH]c(=O)c2-c2nc3c(C)cc(N4CCOCC4)cc3[nH]2)c1 | 2.7 µM·h | –
CCOC(=O)c1cnn(CCNc2cc[nH]c(=O)c2-c2nc3c(C)cc(N4CCOCC4)cc3[nH]2)c1 | 4.9 µM·h | –
COC(=O)c1cnn(CCNc2cc[nH]c(=O)c2-c2nc3c(C)cc(N4CCOCC4)cc3[nH]2)c1 | 14.1 µM·h | –
Cc1cc(N2CCOCC2)cc2[nH]c(-c3c(NCCn4cccn4)cc[nH]c3=O)nc12 | 1.6 µM·h | –
Cc1cc(N2CCOCC2)cc2[nH]c(-c3c(NCCn4cc(Br)c(CO)n4)cc[nH]c3=O)nc12 | 2 µM·h | –
Cc1cc(N2CCOCC2)cc2[nH]c(-c3c(NCCn4nccc4C)cc[nH]c3=O)nc12 | 5.2 µM·h | IC50 [1]: 0.542 µM; IC50 [2]: 0.27 µM
Cc1nn(CCNc2cc[nH]c(=O)c2-c2nc3c(C)cc(N4CCOCC4)cc3[nH]2)cc1Br | 132 µM·h | –
Cc1nn(CCNc2cc[nH]c(=O)c2-c2nc3c(C)cc(N4CCOCC4)cc3[nH]2)cc1Cl | 57.8 µM·h | –
Cc1cc(N2CCOCC2)cc2[nH]c(-c3c(NCCn4cc(Cl)cn4)cc[nH]c3=O)nc12 | 90.3 µM·h | –
Cc1ccn(CCNc2cc[nH]c(=O)c2-c2nc3c(C)cc(N4CCOCC4)cc3[nH]2)n1 | 1.2 µM·h | IC50 [1]: 0.422 µM; IC50 [2]: 0.29 µM
Cc1cc(N2CCOCC2)cc2[nH]c(-c3c(NC[C@@H](O)c4cccc(Cl)c4)cc[nH]c3=O)nc12 | 50.9 µM·h | fraction unbound [3]: < 0.001; PB (Serum): 99.6%
Cc1cc(N2CCOCC2)cc2[nH]c(-c3c(NCCn4ncc(Br)c4C)cc[nH]c3=O)nc12 | 33 µM·h | –
CCn1cnc(CCNc2cc[nH]c(=O)c2-c2nc3c(C)cc(N4CCOCC4)cc3[nH]2)c1Br | – | IC50 [1]: 0.284 µM; IC50 [2]: 0.172 µM
